Among the data in PubChem BioAssay AID463203 (Broad Institute, 2010) are AC50 values, retold here.

The source made the active and inactive calls.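 How the source made its calls: active means more than half of replicate measurements showing over 20% loss of kinase signal relative to plate controls; inconclusive means some but at most half of replicates over 20% loss; inactive means no replicate over 20% signal loss.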

In this experiment the target is Glycogen synthase kinase-3 alpha (Homo sapiens) (UniProt P49840). Nature of the experiment: concentration-response blocking of human GSK3A – biochemical, luminescence, cell-free homogeneous, retest, dose response (AID 463203). To be noted: GSK-3 alpha enzyme, ADP-Glo luminescence, 60 min.
Sequence of Glycogen synthase kinase-3 alpha (Homo sapiens) (P49840 whole entry, looked up): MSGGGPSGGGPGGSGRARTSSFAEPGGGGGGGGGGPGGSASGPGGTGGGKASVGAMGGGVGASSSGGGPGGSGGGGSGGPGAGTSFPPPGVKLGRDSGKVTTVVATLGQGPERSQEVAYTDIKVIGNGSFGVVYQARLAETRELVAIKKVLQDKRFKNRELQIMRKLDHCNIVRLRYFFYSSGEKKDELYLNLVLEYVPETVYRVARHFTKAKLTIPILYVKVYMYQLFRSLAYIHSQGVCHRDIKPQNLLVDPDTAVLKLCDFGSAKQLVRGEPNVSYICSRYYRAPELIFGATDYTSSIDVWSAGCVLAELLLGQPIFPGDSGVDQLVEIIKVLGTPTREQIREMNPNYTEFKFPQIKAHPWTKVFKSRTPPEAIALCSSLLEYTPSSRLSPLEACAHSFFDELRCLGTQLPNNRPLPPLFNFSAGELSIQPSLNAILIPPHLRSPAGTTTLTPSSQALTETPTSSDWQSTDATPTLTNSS
Consider `CC1(C)Cc2nc3oc4c(=S)nc[nH]c4c3cc2CO1`, for which the AC50 was 17 µM.

For `CN(C)C(=O)Oc1cccc2c(OC(=O)N(C)C)cccc12`, the AC50 was > 30 µM (inactive).

Take `COc1ccc(/C=N/NC(=O)c2nnn(-c3nonc3N)c2-c2cccs2)c(OC)c1`: the half-maximal activity concentration (AC50) was 1.04 µM.

Turning to `CCc1ccc(C2CC(c3ccc(Cl)cc3)n3nc(N)nc3N2)cc1` (centres undefined), the AC50 was > 30 µM (inactive).

For `CC1=C(C(=O)OCc2ccccc2)C(c2cccc(F)c2)NC(=O)N1` (centres undefined), the AC50 is > 30 µM (inactive).

Turning to `COCc1c(C(=O)N/N=C\c2cccnc2)nnn1-c1nonc1N`, the AC50 is > 30 µM (inactive).

On to `Brc1ccccc1/C=N/Nc1ccc2ccccc2n1`, for which the AC50 is > 30 µM (inactive).

On to `O=C(CN(Cc1ccco1)C(=O)CCC(=O)Nc1ccccn1)NCc1ccccc1`, for which the AC50 is > 30 µM (inactive).

For `S=C(NCc1ccccc1)Nc1cccc2cnccc12`, the AC50 is > 30 µM (inactive).

`COc1ccc(C2NC(=O)NC(C)=C2C(=O)OCc2ccc3c(c2)OCO3)cc1OC` (centres undefined): the AC50 is 10.2 µM.

`Cc1ccc(NC(=O)CSc2nnc(-c3ccncc3)o2)cc1`: the AC50 is > 30 µM (inactive).

With `CC1(C)Cc2c(sc3c2C2=NCCN2C=N3)CS1`, the AC50 is > 30 µM (inactive).

Turning to `Cc1cccc(N=c2oc3cc(O)ccc3cc2C(N)=O)c1`, the half-maximal activity concentration (AC50) is 5.52 µM.

`O=C(c1ccco1)N(Cc1ccc([N+](=O)[O-])cc1)c1ccc(Cl)cc1`: the AC50 is > 30 µM (inactive).

On to `Nc1nonc1-n1nnc(C(=O)N/N=C/c2cccs2)c1CSc1ccccc1`, for which the AC50 is > 30 µM (inactive).

Consider `O=C(CSc1ccccc1)Nc1nnc(C2CC2)s1`, for which the AC50 was > 30 µM (inactive).

With `O=C(COC(=O)Cc1ccc(F)cc1)Nc1ccc(Cl)cn1`, the concentration at half-maximal activity (AC50) was 14.1 µM.

Regarding `CCOc1cc(/C=N/NC(=O)N/N=C/c2ccc(O)c(OCC)c2)ccc1O`, the AC50 was > 30 µM (inactive).

For `Cc1oc2ccc(O)c(CN3CCOCC3)c2c1C(=O)c1ccc(Cl)cc1`, the AC50 was > 30 µM (inactive).

On to `CC(C)(C)c1ccc(CSc2nnc(-c3ccccc3NC(=O)c3ccccc3)o2)cc1`, for which the AC50 is > 30 µM (inactive).

On to `CCNC(=S)NNC(=O)Cc1ccccc1`, for which the AC50 is > 30 µM (inactive).

`CCc1cc(C(=O)c2ccc(C)cc2)c(NC(=O)CCl)s1`: the AC50 is > 30 µM (inactive).

In the case of `COC(=O)c1sc(NC(=O)COc2ccc(OC)cc2)nc1C`, the AC50 is 28.6 µM.

For `CCCNC(=O)NC(C(=O)OC)C12CC3CC(CC(C3)C1)C2` (centres undefined), the AC50 was > 30 µM (inactive).

Take `COC(=O)c1cc2cc(Cl)ccc2nc1SC`: the AC50 was > 30 µM (inactive).

Regarding `O=C(O)c1cc(-c2ccc(/C=N/N3C(=O)C4C5C=CC(C6CC56)C4C3=O)o2)ccc1Cl` (centres undefined), the AC50 was > 30 µM (inactive).

In the case of `C(=N\Nc1ncnc2sc3c(c12)CCC3)/c1ccncc1`, the AC50 is 5.85 µM.

For the compound `COc1ccc2nc(NC(=O)CN3C(=O)NC4(CCCC4)C3=O)sc2c1`, the concentration at half-maximal activity (AC50) was 26.3 µM.

Take `CC(=O)Nc1ccc(NC(=O)CSc2nnc(-c3ccc4c(c3)OCO4)o2)cc1`: the half-maximal activity concentration (AC50) was 2.61 µM.

For `CCCCSc1nc(N)c(C#N)c(-c2cccs2)c1C#N`, the AC50 was > 30 µM (inactive).

With `CCCCOC(=O)c1ccc(N/C(=N\S(=O)(=O)c2ccccc2)c2ccccc2)cc1`, the AC50 was > 30 µM (inactive).

As for `COCCCNc1nc(N)c([N+](=O)[O-])c(N2CCCCCC2)n1`, the AC50 is 9.97 µM.

As to `Cc1ccc(Cn2cc(/C=N/Nc3ccc([N+](=O)[O-])cn3)c3ccccc32)cc1`, the AC50 is > 30 µM (inactive).

Take `O=C(Nc1ccc(Cl)cn1)c1cccc(S(=O)(=O)N2CCOCC2)c1`: the AC50 was > 30 µM (inactive).

Take `O=C(/C(=N/N=C/c1ccc(O)c(O)c1)c1ccccc1)c1ccccc1`: the AC50 is > 30 µM (inactive).

As for `CNc1nc(Cl)c(SC)c(NC2CCCCC2)n1`, the AC50 is > 30 µM (inactive).

On to `Cc1ccc(N=Nc2c(O)ccc3n[nH]nc23)cc1`, for which the AC50 was 4.23 µM.

For `O=C(CSc1nnc(SCc2ccccc2)s1)N/N=C/c1ccc(C(=O)O)cc1`, the AC50 was 2.55 µM.

As for `Cc1ccc(C)c(N2CC(C(=O)Nc3nccs3)CC2=O)c1` (centres undefined), the AC50 is > 30 µM (inactive).

`O=c1cc(-c2ccco2)oc2c1ccc1ccccc12`: the concentration at half-maximal activity (AC50) was 7.17 µM.

`Cc1cccc(N2CC(C(=O)Nc3nccs3)CC2=O)c1C` (centres undefined): the AC50 was > 30 µM (inactive).

Regarding `O=C(O)c1cccc2c1C(=O)c1ccc(Cl)cc1S2(=O)=O`, the AC50 was > 30 µM (inactive).

With `O=C(NCc1c(F)cccc1F)c1cc(COc2c(F)cccc2F)on1`, the AC50 was > 30 µM (inactive).

For the compound `O=C(O)COc1ccccc1/C=N/NC(=O)CSc1nnc(SCc2ccccc2)s1`, the AC50 was > 30 µM (inactive).

Take `Cc1ccc(-c2cn3cccnc3n2)cc1NC(=O)c1cccs1`: the AC50 was > 30 µM (inactive).

On to `COc1cccc(-n2c(SCC(=O)NC3CCCC3)nnc2-c2ccco2)c1`, for which the AC50 was > 30 µM (inactive).

For `CC1=CC(=C2C(=O)c3ccccc3C2=O)C=C(C)N1Cc1ccco1`, the AC50 is > 30 µM (inactive).

`CC1(C)Oc2ccc3ccc(=O)oc3c2-c2cnoc21`: the AC50 is > 30 µM (inactive).

With `CN(C)Cc1c(C(=O)N/N=C/C=C/c2ccccc2)nnn1-c1nonc1N`, the AC50 is 30 µM.

On to `Cc1nc2cc(-c3ccccc3)ccc2o1`, for which the AC50 was > 30 µM (inactive).

In the case of `CNc1cc(N2CCCC2)ccc1[N+](=O)[O-]`, the AC50 was > 30 µM (inactive).

In the case of `CCOC(=O)c1sc(NC(=O)C2CC2)cc1C`, the AC50 is > 30 µM (inactive).

`O=C(NCc1ccc2c(c1)OCO2)c1cc(COc2c(F)cccc2F)on1`: the AC50 was > 30 µM (inactive).

For `Cc1nn(CCOc2ccccc2)c(=O)n1-c1ccccc1F`, the AC50 was > 30 µM (inactive).

`Cc1ccc(CNc2nc(N)c([N+](=O)[O-])c(NCc3ccccc3)n2)cc1`: the AC50 is > 30 µM (inactive).

`CCOC(=O)c1cccnc1NC(=O)c1ccncc1`: the AC50 is > 30 µM (inactive).

Turning to `CCOc1ccc(-c2ncncc2-c2ccc(OC)cc2)c(O)c1`, the AC50 was > 30 µM (inactive).

Take `COc1ccc2cc(C(=O)NCc3ccco3)c(=O)oc2c1`: the AC50 was > 30 µM (inactive).

Turning to `CCCc1cc(=O)[nH]c(SCC(=O)Nc2sc3c(c2C(N)=O)CCCC3)n1`, the AC50 is > 30 µM (inactive).

For the compound `CCOc1ccc(Nc2nc(N)c3ccccc3n2)cc1`, the AC50 was 31.2 µM.

`CCOC(=O)c1cc(CC)sc1NC(=O)C1CC1`: the AC50 was > 30 µM (inactive).

`O=C(O)c1ccc2c(c1)C(=O)N(CCCCCCCN1C(=O)c3ccc(C(=O)O)cc3C1=O)C2=O`: the AC50 is 22.2 µM.

Consider `COc1ccccc1N=c1oc2cc(O)ccc2cc1C(=O)NCC1CCCO1` (centres undefined), for which the AC50 is > 30 µM (inactive).

Regarding `CN(C)CCCNc1ccc(S(N)(=O)=O)cc1[N+](=O)[O-]`, the AC50 was > 30 µM (inactive).

With `CCOc1cc(/C=C2\SC(N)=NC2=O)ccc1O`, the half-maximal activity concentration (AC50) was 22.9 µM.

Regarding `O=C(NCCO)c1ccccc1O`, the AC50 is > 30 µM (inactive).

`CC(/C=N/NC(=O)CSc1nc2ccccc2n1C)=C\c1ccco1`: the AC50 is > 30 µM (inactive).

As for `CCCc1c(C(=O)N/N=C/C(C)=C/c2ccco2)nnn1-c1nonc1N`, the AC50 was > 30 µM (inactive).

For `Oc1ccc(-c2nnc(-c3ccc(O)cc3)nn2)cc1`, the AC50 was > 30 µM (inactive).

For the compound `Nc1c(C(=O)O)ccc2c1C(=O)c1ccccc1C2=O`, the AC50 was 7.87 µM.

On to `Cc1nc(C)c(C(=O)Nc2ncc([N+](=O)[O-])s2)o1`, for which the AC50 was > 30 µM (inactive).

With `COc1ccc2nc(NC(=O)CCc3cc(OC)c(OC)c(OC)c3)sc2c1`, the half-maximal activity concentration (AC50) was 7.29 µM.

With `Cc1ccc(SCCc2cc[n+](CC(=O)c3ccccc3)cc2)cc1`, the AC50 was > 30 µM (inactive).

Consider `COc1ccc(Nc2cc(C)nc(N)n2)cc1`, for which the AC50 was > 30 µM (inactive).

With `CCC(C)c1ccc(NC(=S)NCc2cccs2)cc1` (centres undefined), the AC50 was > 30 µM (inactive).

Consider `COc1ccc(NC(=O)CSc2nnc(-c3cccc(O)c3)o2)cc1`, for which the AC50 is > 30 µM (inactive).

With `CN1/C(=C\C=C(/C#N)C(=O)Nc2ccccc2F)C(C)(C)c2ccccc21`, the AC50 is > 30 µM (inactive).

In the case of `Cc1cc(/C=N/O)c(C)n1-c1ccc(Br)cc1`, the AC50 was > 30 µM (inactive).

In the case of `Cc1ccc(-c2nnc(N3CCN(C(=O)COc4cccc(C)c4)CC3)c3ccccc23)cc1`, the AC50 was > 30 µM (inactive).

With `COc1ccccc1NC(=O)c1cc(Cl)ccc1NC(=O)c1ccco1`, the AC50 is > 30 µM (inactive).

Turning to `Cc1ccc(S(=O)(=O)N2CCN(C(=O)n3ccnc3)CC2)cc1`, the AC50 was > 30 µM (inactive).

`CCOC(=O)c1nc(NCc2ccccc2F)c2ccccc2n1`: the AC50 was > 30 µM (inactive).

`COc1cc(C2c3sc(=O)[nH]c3SC3C(=O)N(c4ccc(C)cc4)C(=O)C32)ccc1O` (centres undefined): the AC50 was > 30 µM (inactive).

Regarding `c1ccc(Cn2nc(-c3ccccc3)nc2-c2ccccc2)cc1`, the AC50 is > 30 µM (inactive).

Turning to `O=C(NCCc1csc(-c2cccnc2)n1)c1ccc(Br)o1`, the AC50 is 17.8 µM.

For the compound `C#CCSc1nnc(-c2ccc(O)cc2)o1`, the concentration at half-maximal activity (AC50) is 25.5 µM.

For `COc1ccccc1CC(=O)N1CCOCC1`, the AC50 was > 30 µM (inactive).

In the case of `COc1ccc(-n2c(SCC(N)=O)nnc2-c2ccco2)cc1`, the AC50 is > 30 µM (inactive).

Turning to `CN(C)S(=O)(=O)c1cccc(NC(=S)NN=C(Cc2ccccc2)Cc2ccccc2)c1`, the AC50 was > 30 µM (inactive).

In the case of `CCC(CO)Nc1ncc([N+](=O)[O-])cc1C#N` (centres undefined), the AC50 is > 30 µM (inactive).

For `CCOC(=O)c1nc(NCc2ccccc2C)c2ccccc2n1`, the AC50 was > 30 µM (inactive).

`CCOc1ccc(-c2nc(N)ncc2-c2ccccc2)c(O)c1`: the AC50 was 20.7 µM.

In the case of `CN1/C(=C\C=C2C(=O)NC(=O)NC2=O)C(C)(C)c2ccccc21`, the AC50 is 27.9 µM.

For `S=C(Nc1ccc2c(c1)OCCO2)Nc1ccccc1Cl`, the AC50 is > 30 µM (inactive).

As a reminder, the AC50 is the concentration at which the activity in the assay is half-maximal.
